Values of other authors as cited in patent US20010006649A1, “STABLE ORAL PHARMACEUTICAL DOSAGE FORMS” (priority 1997, published 2001).

Key:
[1] = enteric granule formulations, alkaline stabilizers screened
[2] = omeprazole solution, pH-decomposition rate profile

| optimal pH stability [1] | stability when exposed to light | pH of maximum stability [2] | Structure (SMILES) |
| --- | --- | --- | --- |
| 9 | relatively stable |  | Cc1c(OCC(F)(F)F)ccnc1C[S+]([O-])c1nc2ccccc2[nH]1 (stereo not drawn) [Lansoprazole, 2-[[[3-methyl-4-(2,2,2-trifluroethoxy)-2-pyridyl]methyl]sulfinyl] benzimidazole] |
|  |  | 11 | COc1ccc2[nH]c([S+]([O-])Cc3ncc(C)c(OC)c3C)nc2c1 (stereo not drawn) [omeprazole, 2-[2-(3,5-dimethyl-4-methoxy)-pyridylmethylsulfinyl]-(5-methoxy)-benzimidazole] |
